Experimental data published in patent publication US8937091B2 (Japan Science and Technology Agency, priority 2009, dated 2015).

Tests used:
[1] = tested on: SOCE (store operated calcium entry) in CHO cells; experiment: Assay of SOCE (store operated calcium entry)-inhibiting action; format: cell-based, Chinese hamster; settings: Cricetulus griseus, CHO; for inhibition at 10 µM: test compound 10 μmol; for inhibition at 10 µM / inhibition at 30 µM / inhibition at 100 µM: CHO cells, thapsigargin, read-out: SOCE level (percentage of inhibition); for inhibition at 30 µM: test compound 30 μmol; for inhibition at 100 µM: test compound 100 μmol; for IC50: Table 1
Procedure: The extracellular fluid (i.e., medium) of cultured Chinese hamster ovary (CHO) cells was replaced by BSS containing no calcium. One minute later, a test compound was added. Two minutes later, 1 μM thapsigargin was added to cause depletion of the intracellular calcium store. Nine minutes later, calcium chloride (final concentration: 2 mM) was added to the extracellular fluid. The SOCE-inhibiting action levels at different compound concentrations after the addition of calcium chloride were determined as the percentage of inhibition (%) by evaluating the influence of the compound on the degree of increase in the intracellular calcium concentration.
(§1) Hereafter, the numerals in parentheses written after the TG level, the SOCE level, and the IICR level correspond to the test compound concentrations. The number following the name of each title compound used in the Examples below represents a compound ID number designated arbitrarily by the present inventors.

[2] = tested on: IICR (IP3 induced calcium release) in CHO cells; experiment: Assay of IICR (IP3 induced calcium release)-inhibiting action; format: cell-based, Chinese hamster; settings: for inhibition at 10 µM / inhibition at 30 µM / inhibition at 100 µM / IC50: Cricetulus griseus, CHO; for inhibition at 10 µM / inhibition at 30 µM / inhibition at 100 µM / IICR level (percentage of inhibition): CHO cells, 10 μM ATP; for inhibition at 10 µM / inhibition at 30 µM / inhibition at 100 µM: read-out: IICR level (percentage of inhibition); for IC50: Table 1
Procedure: The extracellular fluid (i.e., medium) of cultured CHO cells was replaced by BSS containing calcium. One minute later, a test compound was added. Two minutes later, 10 μM ATP was added. The IICR-inhibiting action levels at different compound concentrations after the addition of ATP were determined as the percentage of inhibition (%) by evaluating the influence of the compound on the degree of increase in the intracellular calcium concentration.
as §1

CC(C)N(CCC(=O)c1ccc[nH]1)Cc1ccccc1 [Example 110, 2-(N-isopropylbenzyl)aminoethyl-2-pyrroleketone]
inhibition at 10 µM [1]: 0% | inhibition at 30 µM [1]: 0% | inhibition at 100 µM [1]: 0% | inhibition at 10 µM ([2]; test compound 10 μmol): 20% | inhibition at 30 µM ([2]; test compound 30 μmol): 40% | inhibition at 100 µM ([2]; test compound 100 μmol): 100%

CCN(CCC(=O)c1cnccn1)Cc1ccccc1 [Example 111, 2-(N-ethylbenzyl)aminoethyl-2-pyrazinylketone]
inhibition at 10 µM [1]: 0% | inhibition at 30 µM [1]: 0% | inhibition at 100 µM [1]: 0% | inhibition at 10 µM ([2]; test compound 10 μmol): 30% | inhibition at 30 µM ([2]; test compound 30 μmol): 80% | inhibition at 100 µM ([2]; test compound 100 μmol): 95%

O=C(CCNCCS)c1ccc(Oc2ccccc2)cc1 [Example 112, 2-(N-mercaptoethyl)aminoethyl-4-phenoxyphenylketone]
inhibition at 10 µM [1]: 0% | inhibition at 30 µM [1]: 0% | inhibition at 100 µM [1]: 30% | inhibition at 10 µM ([2]; test compound 10 μmol): 20% | inhibition at 30 µM ([2]; test compound 30 μmol): 30% | inhibition at 100 µM ([2]; test compound 100 μmol): 40%

O=C(CCNCCC1=NCN=C1)c1ccc(Oc2ccccc2)cc1 [Example 113]
inhibition at 10 µM [1]: 0% | inhibition at 30 µM [1]: 10% | inhibition at 100 µM [1]: 40% | inhibition at 10 µM ([2]; test compound 10 μmol): 70% | inhibition at 30 µM ([2]; test compound 30 μmol): 90% | inhibition at 100 µM ([2]; test compound 100 μmol): 100%

CCCCN(CCO)CCC(=O)c1ccc(Oc2ccccc2)cc1 [Example 114, 2-(N-hydroxyethylbutyl)aminoethyl-4-phenoxyphenylketone]
inhibition at 10 µM [1]: 0% | inhibition at 30 µM [1]: 10% | inhibition at 100 µM [1]: 40% | inhibition at 10 µM ([2]; test compound 10 μmol): 70% | inhibition at 30 µM ([2]; test compound 30 μmol): 100% | inhibition at 100 µM ([2]; test compound 100 μmol): 30%

O=C(CCN1CCN(C(=O)c2ccco2)CC1)c1ccc(Oc2ccccc2)cc1 [Example 115, 2-(N-furoylpiperazyl)aminoethyl-4-phenoxyphenylketone]
inhibition at 10 µM [1]: 0% | inhibition at 30 µM [1]: 0% | inhibition at 100 µM [1]: 30% | inhibition at 10 µM ([2]; test compound 10 μmol): 20% | inhibition at 30 µM ([2]; test compound 30 μmol): 20% | inhibition at 100 µM ([2]; test compound 100 μmol): 20%

CCN(CC)CCC(=O)c1ccc(Oc2ccccc2)cc1 [Example 116, 2-(N-diethyl)aminoethyl-4-phenoxyphenylketone]
inhibition at 10 µM [1]: 0% | inhibition at 30 µM [1]: 0% | inhibition at 100 µM [1]: 20% | inhibition at 10 µM ([2]; test compound 10 μmol): 20% | inhibition at 30 µM ([2]; test compound 30 μmol): 20% | inhibition at 100 µM ([2]; test compound 100 μmol): 70%

CC(C)N(CCC(=O)c1cnccn1)Cc1ccccc1 [Example 117, 2-(N-isopropylbenzyl)aminoethyl-2-pyrazylketone]
inhibition at 10 µM [1]: 0% | inhibition at 30 µM [1]: 0% | inhibition at 100 µM [1]: 0% | IC50 [1]: > 100 µM | inhibition at 10 µM ([2]; test compound 10 μmol): 20% | inhibition at 30 µM ([2]; test compound 30 μmol): 50% | inhibition at 100 µM ([2]; test compound 100 μmol): 90% | IC50 [2]: 30 µM

NCCCCNCCC(=O)c1ccc2ccccc2c1 [Example 118, 2-(N-aminobutyl)aminoethyl-2-naphthylketone]
inhibition at 10 µM [1]: 0% | inhibition at 30 µM [1]: 0% | inhibition at 100 µM [1]: 0% | inhibition at 10 µM ([2]; test compound 10 μmol): 0% | inhibition at 30 µM ([2]; test compound 30 μmol): 0% | inhibition at 100 µM ([2]; test compound 100 μmol): 0%

NCCCNCCCCNCCC(=O)c1ccc2ccccc2c1 [Example 119, 2-(N-aminopropylaminobutyl)aminoethyl-2-naphthylketone]
inhibition at 10 µM [1]: 0% | inhibition at 30 µM [1]: 0% | inhibition at 100 µM [1]: 0% | inhibition at 10 µM ([2]; test compound 10 μmol): 0% | inhibition at 30 µM ([2]; test compound 30 μmol): 0% | inhibition at 100 µM ([2]; test compound 100 μmol): 0%

CC(C)N(CCC(=O)c1nccs1)Cc1ccccc1 [Example 120, 2-(N-isopropylbenzyl)aminoethyl-2-thiazolylketone]
inhibition at 10 µM [1]: 0% | inhibition at 30 µM [1]: 0% | inhibition at 100 µM [1]: 20% | inhibition at 10 µM ([2]; test compound 10 μmol): 10% | inhibition at 30 µM ([2]; test compound 30 μmol): 90% | inhibition at 100 µM ([2]; test compound 100 μmol): 100%

CC(C)(C)N(CCC(=O)c1ccco1)Cc1ccccc1 [Example 121, 2-(N-t-butylbenzyl)aminoethyl-2-furylketone]
inhibition at 10 µM [1]: 0% | inhibition at 30 µM [1]: 0% | inhibition at 100 µM [1]: 0% | IC50 [1]: > 100 µM | inhibition at 10 µM ([2]; test compound 10 μmol): 10% | inhibition at 30 µM ([2]; test compound 30 μmol): 50% | inhibition at 100 µM ([2]; test compound 100 μmol): 100% | IC50 [2]: 30 µM

CC(C)(C)N(CCO)CCC(=O)c1nccs1 [Example 122, 2-(N-t-butylhydroxyethyl)aminoethyl-2-thiazolylketone]
inhibition at 10 µM [1]: 0% | inhibition at 30 µM [1]: 0% | inhibition at 100 µM [1]: 0% | inhibition at 10 µM ([2]; test compound 10 μmol): 0% | inhibition at 30 µM ([2]; test compound 30 μmol): 0% | inhibition at 100 µM ([2]; test compound 100 μmol): 0%

CC(C)(C)N(CCO)CCC(=O)c1ccco1 [Example 123, 2-(N-t-butylhydroxyethyl)aminoethyl-2-furylketone]
inhibition at 10 µM [1]: 0% | inhibition at 30 µM [1]: 10% | inhibition at 100 µM [1]: 20% | inhibition at 10 µM ([2]; test compound 10 μmol): 20% | inhibition at 30 µM ([2]; test compound 30 μmol): 20% | inhibition at 100 µM ([2]; test compound 100 μmol): 70%

O=C(CCN(CCO)Cc1ccccc1)c1ccco1 [Example 124, 2-(N-hydroxyethylbenzyl)aminoethyl-2-furylketone]
inhibition at 10 µM [1]: 0% | inhibition at 30 µM [1]: 0% | inhibition at 100 µM [1]: 0% | inhibition at 10 µM ([2]; test compound 10 μmol): 20% | inhibition at 30 µM ([2]; test compound 30 μmol): 20% | inhibition at 100 µM ([2]; test compound 100 μmol): 70%

CN(CCC(=O)c1cccs1)Cc1ccccc1 [Example 125, 2-(N-methylbenzyl)aminoethyl-2-thiophenylketone]
inhibition at 10 µM [1]: 0% | inhibition at 30 µM [1]: 0% | inhibition at 100 µM [1]: 0% | inhibition at 10 µM ([2]; test compound 10 μmol): 0% | inhibition at 30 µM ([2]; test compound 30 μmol): 30% | inhibition at 100 µM ([2]; test compound 100 μmol): 70%

CN(CCO)CCC(=O)c1cccs1 [Example 126, 2-(N-methylhydroxyethyl)aminoethyl-2-thiophenylketone]
inhibition at 10 µM [1]: 0% | inhibition at 30 µM [1]: 0% | inhibition at 100 µM [1]: 0% | inhibition at 10 µM ([2]; test compound 10 μmol): 20% | inhibition at 30 µM ([2]; test compound 30 μmol): 20% | inhibition at 100 µM ([2]; test compound 100 μmol): 70%

O=C(CCN1CCCCC1CO)c1cccs1 (stereo not shown) [Example 127]
inhibition at 10 µM [1]: 0% | inhibition at 30 µM [1]: 0% | inhibition at 100 µM [1]: 10% | inhibition at 10 µM ([2]; test compound 10 μmol): 20% | inhibition at 30 µM ([2]; test compound 30 μmol): 20% | inhibition at 100 µM ([2]; test compound 100 μmol): 50%

O=C(CCNc1ccccc1S)c1cccs1 [Example 128, 2-(2-mercaptophenyl)aminoethylthiophenylketone]
inhibition at 10 µM [1]: 0% | inhibition at 30 µM [1]: 0% | inhibition at 100 µM [1]: 20% | inhibition at 10 µM ([2]; test compound 10 μmol): 0% | inhibition at 30 µM ([2]; test compound 30 μmol): 30% | inhibition at 100 µM ([2]; test compound 100 μmol): 10%

O=C(CCN(CCO)Cc1ccccc1)c1cnccn1 [Example 129, 2-(N-benzylhydroxyethyl)aminoethyl-2-pyrazylketone]
inhibition at 10 µM [1]: 0% | inhibition at 30 µM [1]: 0% | inhibition at 100 µM [1]: 0% | inhibition at 10 µM ([2]; test compound 10 μmol): 0% | inhibition at 30 µM ([2]; test compound 30 μmol): 50% | inhibition at 100 µM ([2]; test compound 100 μmol): 90%

O=C(CCN(CCO)CCO)c1ccco1 [Example 130, 2-(N-bis-hydroxyethyl)aminoethyl-2-furylketone]
inhibition at 10 µM [1]: 0% | inhibition at 30 µM [1]: 0% | inhibition at 100 µM [1]: 0% | IICR level (percentage of inhibition) ([2]; test compound 10 μmol): 20% | IICR level (percentage of inhibition) ([2]; test compound 30 μmol): 20% | IICR level (percentage of inhibition) ([2]; test compound 100 μmol): 50%

CN1CCN(CCC(=O)c2ccccc2)CC1 [Example 131, 2-(N-methylpiperazyl)ethylphenylketone]
inhibition at 10 µM [1]: 0% | inhibition at 30 µM [1]: 0% | inhibition at 100 µM [1]: 0% | inhibition at 10 µM ([2]; test compound 10 μmol): 30% | inhibition at 30 µM ([2]; test compound 30 μmol): 20% | inhibition at 100 µM ([2]; test compound 100 μmol): 50%

O=C(CCN(CCO)c1ccccc1)c1ccco1 [Example 132, 2-(N-phenylhydroxyethyl)aminoethyl-2-furylketone]
inhibition at 10 µM [1]: 0% | inhibition at 30 µM [1]: 0% | inhibition at 100 µM [1]: 0% | inhibition at 10 µM ([2]; test compound 10 μmol): 10% | inhibition at 30 µM ([2]; test compound 30 μmol): 20% | inhibition at 100 µM ([2]; test compound 100 μmol): 20%

O=C(CCN(CCO)c1ccccc1)c1ccccc1 [Example 133, 2-(N-phenylhydroxyethyl)aminoethylphenylketone]
inhibition at 10 µM [1]: 0% | inhibition at 30 µM [1]: 0% | inhibition at 100 µM [1]: 0% | inhibition at 10 µM ([2]; test compound 10 μmol): 20% | inhibition at 30 µM ([2]; test compound 30 μmol): 20% | inhibition at 100 µM ([2]; test compound 100 μmol): 30%

O=C(CCN(CCO)c1ccccc1)c1ccncc1 [Example 134, 2-(N-phenylhydroxyethyl)aminoethyl-4-pyridylketone]
inhibition at 10 µM [1]: 0% | inhibition at 30 µM [1]: 0% | inhibition at 100 µM [1]: 0% | inhibition at 10 µM ([2]; test compound 10 μmol): 20% | inhibition at 30 µM ([2]; test compound 30 μmol): 20% | inhibition at 100 µM ([2]; test compound 100 μmol): 30%

O=C(CCN(CCO)Cc1ccccc1)c1ccncc1 [Example 135, 2-(N-benzylhydroxyethyl)aminoethyl-4-pyridylketone]
inhibition at 10 µM [1]: 0% | inhibition at 30 µM [1]: 0% | inhibition at 100 µM [1]: 0% | inhibition at 10 µM ([2]; test compound 10 μmol): 20% | inhibition at 30 µM ([2]; test compound 30 μmol): 10% | inhibition at 100 µM ([2]; test compound 100 μmol): 0%
